# Measurements taken from patent US6500610B1, “Methods for identifying compounds for inhibiting of neoplastic lesions, and pharmaceutical compositions containing such compounds” (Cell Pathways, INC, priority 1997, dated 2002).
# Like-named read-outs stand apart in the source and are kept apart here.
# Key:
# [1] = system: premalignant lesions in mouse mammary gland organ culture; assay: Mammary gland organ culture model; format: cell-based
# Excerpt: Test compounds identified by the above methods can be tested for antineoplastic activity by their ability to inhibit the incidence of pre-neoplastic lesions in a mammary gland organ culture system. This mouse mammary gland organ culture technique has been successfully used by other investigators to study the effects of known antineoplastic agents such as certain NSAIDs, retinoids, tamoxifen, selenium, and certain natural products, and is useful for validation of the screening method of the present invention.
# For example, female BALB/c mice can be treated with a combination of estradiol and progesterone daily, in order to prime the glands to be responsive to hormones in vitro. The animals are sacrificed, and thoracic mammary glands are excised aseptically and incubated for ten days in growth media supplemented with insulin, prolactin, hydrocortisone, and aldosterone. DMBA (7,12 dimethylbenz(a)anthracene) is added to medium to induce the formation of premalignant lesions. Fully developed glands are then deprived of prolactin, hydrocortisone, and aldosterone, resulting in the regression of the glands but not the pre-malignant lesions.
# The test compound is dissolved in DMSO and added to the culture media for the duration of the culture period. At the end of the culture period, the glands are fixed in 10% formalin, stained with alum carmine, and mounted on glass slides. The incidence of forming mammary lesions is the ratio of the glands with mammary lesions to […]. The incidence of mammary lesions in test compound treated glands is compared with that of the untreated glands.
# The extent of the area occupied by the mammary lesions can be quantitated by projecting an image of the gland onto a digitation pad. The area covered by the gland is traced on the pad and considered as 100% of the area. The space covered by each of the non-regressed structures is also outlined on the digitization pad and quantitated by the computer.
# Mammary gland organ culture experiment were performed as previously described (Mehta and Moon, Cancer Research, 46:5832-5835, 1986). […]
# HT-29 cells [2] = assay: Growth inhibition, viable cell count after trypan blue staining; format: cell-based, human; details: HT-29, 120 μM
# Protocol: Growth inhibition (15A top) was measured by counting viable cells after trypan blue staining. Apoptosis (15B bottom) was measured by morphological determination following staining with acridine orange and ethidium bromide as described previously (Duke and Cohen, in: Current Protocols in Immunology, 3.17.1-3.17.16, New York, John Wiley and Sons, 1992). […] All data were collected from the same experiment.
# [3] = biological target: T1, cGMP binding sites of the GST-cGB-PDE5 Protein (Homo sapiens, UniProt O76074); assay: cGMP binding assay with GST-cGB-PDE5 fusion protein; details: 3H-cGMP 2 μM
# T1 construct: made in house; host or cells: E. coli BL21 (DE3)
# [4] = system: cGMP PDE from human colon HT-29 cultured tumor cells; assay: cGMP PDE inhibition assay; format: biochemical
# HT-29 cells [5] = assay: cGMP and cAMP levels in HT-29 cells by radioimmunoassay; format: cell-based, human; details: HT-29 cells treated 30 minutes
# HT-29 cells [6] = assay: Apoptosis and necrosis by morphology (acridine orange, ethidium bromide) in HT-29; format: cell-based, human
# Excerpt: Apoptosis occurs naturally during normal tissue turnover and during embryonic development of organs and limbs. Apoptosis also is induced by cytotoxic T-lymphocytes and natural killer cells, by ionizing radiation and by certain chemotherapeutic drugs. Inappropriate regulation of apoptosis is thought to play an important role in many pathological conditions including cancer, AIDS, or Alzheimer's disease, etc. Compounds can be screened for induction of apoptosis using cultures of tumor cells maintained under conditions as described above. Treatment of cells with test compounds involves either pre- or post-confluent cultures and treatment for two to seven days at various concentrations. Apoptotic cells are measured in both the attached and “floating” compartments of the cultures. […]
# Apoptotic and necrotic cell death was determined previously (Duke and Cohen, In: Current Protocols in Immunology, 3.17.1 -3.17.16, New York, John Wiley and Sons, 1992). […]
# The apoptosis inducing activity for a series of phosphodiesterase inhibitors was determined. […] Apoptosis and necrosis were determined morphologically after acridine orange and ethidium bromide labeling in accordance with the assay described, supra.
# [7] = biological target: T2, cyclooxygenase (Type 1), COX-I (Ovis aries, UniProt P05979); assay: COX inhibition assay, purified cyclooxygenase; details: for COX-I inhibition: FIG. 5
# T2 sequence (P05979 25-600): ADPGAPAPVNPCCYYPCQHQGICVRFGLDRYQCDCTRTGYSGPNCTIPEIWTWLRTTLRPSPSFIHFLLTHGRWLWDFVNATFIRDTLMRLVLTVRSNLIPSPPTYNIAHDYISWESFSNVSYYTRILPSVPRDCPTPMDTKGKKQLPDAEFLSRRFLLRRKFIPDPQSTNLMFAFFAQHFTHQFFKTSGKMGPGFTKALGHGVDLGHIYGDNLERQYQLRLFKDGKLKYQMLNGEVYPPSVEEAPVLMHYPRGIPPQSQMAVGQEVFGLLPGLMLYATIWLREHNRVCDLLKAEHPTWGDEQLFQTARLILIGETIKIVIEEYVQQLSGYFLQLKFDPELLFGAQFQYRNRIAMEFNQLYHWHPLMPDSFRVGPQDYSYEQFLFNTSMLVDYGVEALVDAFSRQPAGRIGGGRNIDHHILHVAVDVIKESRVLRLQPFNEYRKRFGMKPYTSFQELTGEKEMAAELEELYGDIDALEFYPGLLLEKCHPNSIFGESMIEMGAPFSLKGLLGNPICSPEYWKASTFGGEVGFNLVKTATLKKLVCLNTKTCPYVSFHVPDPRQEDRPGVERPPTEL
# HT-29 cells [8] = assay: Growth inhibition, SRB assay, HT-29; format: cell-based, human
# [9] = biological target: T3, Peak A (PDE5) from SW480 cells (Homo sapiens, UniProt O76074); assay: cGMP hydrolysis inhibition, PDE peak A from SW480; format: biochemical
# T3 construct: To isolate the novel phosphodiesterase from SW480, approximately four hundred million SW480 cells were grown to confluence; endogenous in cells; host or cells: SW480 colon cancer cells; DEAE-Trisacryl M fraction (peak A)
# [10] = biological target: T4, novel cGMP-specific PDE (Peak B) from SW480 cells (Homo sapiens, UniProt O00408); assay: cGMP hydrolysis inhibition, novel PDE peak B (Section IA) from SW480; format: biochemical
# T4 construct: IC50 Peak B (μM)
# T4 sequence (O00408 2-941): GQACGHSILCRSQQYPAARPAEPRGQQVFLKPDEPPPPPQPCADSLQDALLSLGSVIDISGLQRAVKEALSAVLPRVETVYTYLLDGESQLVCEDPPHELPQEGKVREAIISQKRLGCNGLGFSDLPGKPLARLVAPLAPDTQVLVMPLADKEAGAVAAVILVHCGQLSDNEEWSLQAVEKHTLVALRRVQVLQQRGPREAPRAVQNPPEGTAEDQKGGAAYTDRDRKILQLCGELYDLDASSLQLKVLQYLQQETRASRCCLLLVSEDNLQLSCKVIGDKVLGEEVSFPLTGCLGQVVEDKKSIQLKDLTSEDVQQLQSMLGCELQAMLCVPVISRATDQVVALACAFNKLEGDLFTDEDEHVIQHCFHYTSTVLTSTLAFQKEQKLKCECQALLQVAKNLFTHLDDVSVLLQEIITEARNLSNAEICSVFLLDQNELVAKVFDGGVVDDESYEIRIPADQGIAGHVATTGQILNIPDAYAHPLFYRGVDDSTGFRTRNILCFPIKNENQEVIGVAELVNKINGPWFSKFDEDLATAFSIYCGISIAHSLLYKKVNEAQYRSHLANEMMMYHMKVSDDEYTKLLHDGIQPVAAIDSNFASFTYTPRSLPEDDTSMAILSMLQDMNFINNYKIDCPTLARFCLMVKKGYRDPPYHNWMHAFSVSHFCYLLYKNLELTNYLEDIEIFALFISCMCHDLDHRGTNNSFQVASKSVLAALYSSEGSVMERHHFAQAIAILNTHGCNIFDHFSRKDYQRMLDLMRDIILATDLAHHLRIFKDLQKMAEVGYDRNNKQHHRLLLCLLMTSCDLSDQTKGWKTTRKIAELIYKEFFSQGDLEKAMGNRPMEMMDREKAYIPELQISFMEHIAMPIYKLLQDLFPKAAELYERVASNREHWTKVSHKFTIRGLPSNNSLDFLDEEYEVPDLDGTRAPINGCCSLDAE
compound,measurement,setting,value
CSc1ccc(/C=C2/C(C)=C(CC(=O)O)c3cc(F)ccc32)cc1 [Sulindac sulfide],inhibition of formation of premalignant lesions,[1],inactive
same,"growth inhibition, viable cell count time course",HT-29 cells [2],capable of inhibiting tumor cell growth
same,competition with cGMP in binding of GST-cGB-PDE5,[3],None of the PDE5 inhibitors showed any competition with cGMP
same,cGMP PDE % Inhibition at 10 μM,[4],97%
same,increase of levels of cGMP,HT-29 cells [5],greater than 50%
same,levels of cAMP,HT-29 cells [5],unaffected
same,"apoptosis, time course","HT-29 cells [6]; HT-29, 120 μM",accompanied by an increase in apoptosis
same,apoptotic and necrotic cell death,"HT-29 cells [6]; HT-29, treated six days",capable of causing apoptotic cell death without inducing necrosis
"Clc1cccc(Nc2nnc(-c3ccccc3)c3ccccc23)c1 [MY5445, 1-(3-chloroanilino)-4-phenyphthalazine, reference compound]",COX % Inhibition at 100 μM,[7],94%
"CC1=C(CC(=O)O)c2cc(F)ccc2/C1=C\c1ccc(Cl)cc1 [Compound C, (Z)-5-Fluoro-2-methyl-1-(p-chlorobenzylidene)-3-acetic acid]",cGMP PDE % Inhibition at 10 μM,[4],<25%
same,Growth % Inhibition at 100 μM,HT-29 cells [8],80%
"CC(=O)NC(CSC12CC(=O)OC1(C)/C(=C/c1ccc(S(C)(=O)=O)cc1)c1ccc(F)cc12)C(=O)O (racemic) [D, rac-(E)-1-(butan-1′,4′-olido)-[3′,4′:1,2]-6-fluoro-2-methyl-3-(p-methylsulfonylbenzylidene)-1S-indanyl-N-acetylcysteine]",COX % Inhibition at 100 μM,[7],<25%
same,Growth % Inhibition at 100 μM,HT-29 cells [8],78%
"COc1cc(C=C2C(C)=C(CC(=O)O)c3cc(F)ccc32)cc(OC)c1OC [Compound B, (Z)-5-Fluoro-2-methyl-1-(3,4,5-trimethoxybenzylidene)-3-acetic acid]",COX-I inhibition,[7],neither test compound B and E significantly inhibit COX-I
same,competition with cGMP in binding of GST-cGB-PDE5,[3],None of the PDE5 inhibitors showed any competition with cGMP
same,cGMP PDE % Inhibition at 10 μM,[4],<25%
"COc1cc(/C=C2/C(C)=C(CC(=O)NCc3ccccc3)c3cc(F)ccc32)cc(OC)c1OC [Compound E, (Z)-5-Fluoro-2-methyl-1-(3,4,5-trimethoxybenzylidene)-3-indenylacetamide, N-benzyl]",COX-I inhibition,[7],neither test compound B and E significantly inhibit COX-I
same,competition with cGMP in binding of GST-cGB-PDE5,[3],None of the PDE5 inhibitors showed any competition with cGMP
same,competitive (with cGMP) binding to PDE 5 (peak A),[9],does competitively (with cGMP) bind to PDE 5
same,cGMP PDE % Inhibition at 10 μM,[4]; 10 µM,75%
same,competitive (with cGMP) binding to PDE peak B,[10],competitively (with cGMP) binds to PDE peak B
CC1=C(CC(=O)O)c2cc(F)ccc2/C1=C\c1ccc([S+](C)[O-])cc1 (stereo not shown) [sulindac],inhibition of formation of premalignant lesions,[1],effectively inhibit the formation of premalignant lesions
"CCCc1nn(C)c2c(=O)[nH]c(-c3cc(S(=O)(=O)N4CCN(C)CC4)ccc3OCC)nc12 [Sildenafil, reference compound]",inhibition of activity of peak A,[9],inhibited activity of peak A
CCCOc1ccccc1-c1nc2nn[nH]c2c(=O)[nH]1 [Zaprinast],competition with cGMP in binding of GST-cGB-PDE5,[3],None of the PDE5 inhibitors showed any competition with cGMP
COc1ccc(C2CNC(=O)C2)cc1OC1CCCC1 (stereo not shown) [Rolipram],levels of cAMP,HT-29 cells [5],increased cAMP
